These results are taken from PMC4445146 (European journal of medicinal chemistry, 2014).

In test [1] the test system is MDA-MB-468 breast cancer cells. Type of test: cell-based, human. The conditions noted are these: MDA-MB-468 cells; for decrease of Mcl-1 levels and caspase 3 cleavage: concentrations as high as 10 μM (data not shown); for decrease of Mcl-1 levels and induction of apoptosis (caspase 3 activation): 3 μM, western blot.
Test [2] concerns the target Mcl-1/Bim (Homo sapiens, UniProt Q07820). The experiment in a line: ELISA, disruption of Mcl-1/Bim binding. The conditions noted are these: for IC50: read-out: Mcl-1/Bim IC50, ELISA, average ± SEM, n ≥ 3; for fold more potent than 1 against Mcl-1/Bim: ELISA IC50 relative to (±)-marinopyrrole A (1). For orientation: An ELISA detects its analyte on a solid surface through an enzyme-linked reagent.

Test [3] deals with Bcl-xL/Bim (Homo sapiens, UniProt Q07817). Nature of the test: ELISA, disruption of Bcl-xL/Bim binding. As to conditions: for IC50: read-out: Bcl-xL/Bim IC50, ELISA, average ± SEM, n ≥ 3; for selectivity for Bcl-xL over Mcl-1: ratio of ELISA IC50 values; for fold more potent than 1 against Bcl-xL/Bim: ELISA IC50 relative to (±)-marinopyrrole A (1).
Bcl-xL/Bim, sequence (Q07817 whole entry): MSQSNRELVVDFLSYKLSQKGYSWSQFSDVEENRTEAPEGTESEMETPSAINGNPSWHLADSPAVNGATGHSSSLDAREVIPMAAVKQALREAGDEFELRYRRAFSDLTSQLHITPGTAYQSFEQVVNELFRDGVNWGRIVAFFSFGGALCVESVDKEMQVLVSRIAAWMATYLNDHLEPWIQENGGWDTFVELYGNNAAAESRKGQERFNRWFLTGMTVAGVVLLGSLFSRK

Mcl-1/Bim, sequence (Q07820 whole entry): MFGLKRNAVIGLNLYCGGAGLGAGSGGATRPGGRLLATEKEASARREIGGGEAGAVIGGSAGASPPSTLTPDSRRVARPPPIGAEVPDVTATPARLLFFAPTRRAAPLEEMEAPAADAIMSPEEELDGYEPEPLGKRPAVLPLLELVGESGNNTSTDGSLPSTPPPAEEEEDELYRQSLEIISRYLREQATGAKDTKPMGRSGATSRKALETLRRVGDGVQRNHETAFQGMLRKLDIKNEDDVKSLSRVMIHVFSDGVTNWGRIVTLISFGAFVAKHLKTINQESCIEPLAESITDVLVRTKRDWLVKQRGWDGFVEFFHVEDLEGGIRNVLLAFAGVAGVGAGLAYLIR

With `O=C(O)Cn1cc(-c2cc(O)c(C(=O)c3[nH]c(Cl)c(Cl)c3-n3c(C(=O)c4cc(Cl)c(-c5cn(CC(=O)O)nn5)cc4O)cc(Cl)c3Cl)cc2Cl)nn1` [compound 38, 2,2′-(4,4′-((4,4′,5,5′-Tetrachloro-1′H-1,3′-bipyrrole-2,2′-dicarbonyl)bis(2-chloro-5-hydroxy-4,1-phenylene))bis(1H-1,2,3-triazole-4,1-diyl))diacetic acid], in test [1], the “decrease of Mcl-1 levels and caspase 3 cleavage” value was “inactive at decreasing Mcl-1 levels and at inducing caspase 3 cleavage”. For the same compound, in test [2], the IC50 stood at 5.2 ± 0.8 µM.

Regarding `C#Cc1ccc(C(=O)c2[nH]c(Cl)c(Cl)c2-n2c(C(=O)c3ccc(C#C)cc3O)cc(Cl)c2Cl)c(O)c1` [compound 25, (4,4′,5,5′-Tetrachloro-1′H-1,3′-bipyrrole-2,2′-diyl)bis((4-ethynyl-2-hydroxyphenyl)methanone)], the IC50 is 5.6 ± 0.5 µM in test [3] and 3.9 ± 0.2 µM in test [2].

As to `Cn1c(Cl)c(Cl)c(-n2c(C(=O)c3ccccc3O)cc(Cl)c2Cl)c1C(=O)c1ccccc1O` [compound 54, (4,4′,5,5′-tetrachloro-1′-methyl-1′H-[1,3′-bipyrrole]-2,2′-diyl)bis((2-hydroxyphenyl)methanone)], in test [3], the “selectivity for Bcl-xL over Mcl-1” value is reported as “selectivity for Bcl-xL/Bim over Mcl-/Bim”.

Consider `CCOC(=O)Cn1cc(-c2ccc(C(=O)c3[nH]c(Cl)c(Cl)c3-n3c(C(=O)c4ccc(-c5cn(CC(=O)OCC)nn5)cc4O)cc(Cl)c3Cl)c(O)c2)nn1` [compound 43, Diethyl 2,2′-(4,4′-((4,4′,5,5′-tetrachloro-1′H-1,3′-bipyrrole-2,2′-dicarbonyl)bis(3-hydroxy-4,1-phenylene))bis(1H-1,2,3-triazole-4,1-diyl))diacetate], for which the IC50 in test [2] was determined as 18.4 ± 0.3 µM.

For `CCOC(=O)CSc1ccc(C(=O)c2[nH]c(Cl)c(Cl)c2-n2c(C(=O)c3ccc(SCC(=O)OCC)cc3O)cc(Cl)c2Cl)c(O)c1` [compound 31], the “decrease of Mcl-1 levels and induction of apoptosis (caspase 3 activation)” value (from here on “decrease … (caspase 3 activation)”) in test [1] is reported as “little activity in intact cells”.

As for `O=C(c1cc(Cl)c(O)cc1O)c1[nH]c(Cl)c(Cl)c1-n1c(C(=O)c2cc(Cl)c(O)cc2O)cc(Cl)c1Cl` [compound 30], in test [1], the “decrease of Mcl-1 levels and caspase 3 cleavage” value was “inactive at decreasing Mcl-1 levels and at inducing caspase 3 cleavage”.

On to `Cc1cc(O)c(C(=O)c2[nH]c(Cl)c(Cl)c2-n2c(C(=O)c3cc(Cl)c(C)cc3O)cc(Cl)c2Cl)cc1Cl` [compound 24, (4,4′,5,5′-Tetrachloro-1′H-1,3′-bipyrrole-2,2′-diyl)bis((5-chloro-2-hydroxy-4-methylphenyl)methanone)], for which the IC50 was determined as 2.5 ± 0.4 µM in test [3] and 2.6 ± 0.6 µM in test [2].

For `O=C(c1ccc(O)cc1O)c1[nH]c(Cl)c(Cl)c1-n1c(C(=O)c2ccc(O)cc2O)cc(Cl)c1Cl` [compound 29], in test [1], the “decrease of Mcl-1 levels and caspase 3 cleavage” value was “inactive at decreasing Mcl-1 levels and at inducing caspase 3 cleavage”.

As for `CCc1ccc(C(=O)c2[nH]c(Cl)c(Cl)c2-n2c(C(=O)c3ccc(CC)cc3O)cc(Cl)c2Cl)c(O)c1` [compound 27, (4,4′,5,5′-Tetrachloro-1′H-1,3′-bipyrrole-2,2′-diyl)bis((4-ethyl-2-hydroxyphenyl)methanone)], the IC50 in test [3] turned out to be 3.9 ± 1.3 µM; in test [2], 2.1 ± 0.5 µM.

For “(4,4′,5,5′-Tetrachloro-1′H-1,3′-bipyrrole-2,2′-diyl)bis((2-hydroxy-4-(1-octyl-1H-1,2,3-triazol-5-yl)phenyl)methanone) [compound 42]”, in test [3], the “fold more potent than 1 against Bcl-xL/Bim” value is recorded as 33 fold and the IC50 stood at 0.5 ± 0.1 µM. In test [1], the “decrease … (caspase 3 activation)” value is recorded as “little activity in intact cells”. For the same compound, in test [2], the “fold more potent than 1 against Mcl-1/Bim” value worked out at 15 fold and the IC50 worked out at 0.6 ± 0.3 µM.

Regarding `O=C(c1ccccc1O)c1[nH]c(Cl)c(Cl)c1-n1c(C(=O)c2c(O)cccc2F)cc(Cl)c1Cl` [compound 52], in test [1], the “decrease … (caspase 3 activation)” value is given as “not active in intact cells”.

Consider `CCOC(=O)Cn1cc(-c2cc(O)c(C(=O)c3[nH]c(Cl)c(Cl)c3-n3c(C(=O)c4cc(Cl)c(-c5cn(CC(=O)OCC)nn5)cc4O)cc(Cl)c3Cl)cc2Cl)nn1` [compound 36, Diethyl 2,2′-(4,4′-((4,4′,5,5′-tetrachloro-1′H-1,3′-bipyrrole-2,2′-dicarbonyl)bis(2-chloro-5-hydroxy-4,1-phenylene))bis(1H-1,2,3-triazole-4,1-diyl))diacetate], for which, in test [2], the IC50 was found to be 7.8 ± 1.5 µM.

Take `O=C(c1ccc(OS(=O)(=O)C(F)(F)F)cc1O)c1[nH]c(Cl)c(Cl)c1-n1c(C(=O)c2ccccc2O)cc(Cl)c1Cl` [compound 28]: the “fold more potent than 1 against Bcl-xL/Bim” value in test [3] is “eight”. Besides, the “fold more potent than 1 against Mcl-1/Bim” value in test [2] is on record as “nine”.

Turning to `COc1ccc(CSc2ccc(C(=O)c3[nH]c(Cl)c(Cl)c3-n3c(C(=O)c4ccc(SCc5ccc(OC)cc5)cc4O)cc(Cl)c3Cl)c(O)c2)cc1` [compound 33], the “decrease … (caspase 3 activation)” value in test [1] is given as “little activity in intact cells”.

As for `O=C(c1ccccc1O)c1[nH]c(Cl)c(Cl)c1-n1c(C(=O)c2cc(Cl)ccc2O)cc(Cl)c1Cl` [compound 48], the “decrease … (caspase 3 activation)” value in test [1] is given as “not active in intact cells”.

Consider `O=C(c1ccc(-c2cn(-c3ccccc3)nn2)cc1O)c1[nH]c(Cl)c(Cl)c1-n1c(C(=O)c2ccc(-c3cn(-c4ccccc4)nn3)cc2O)cc(Cl)c1Cl` [compound 40], for which the “selectivity for Bcl-xL over Mcl-1” value in test [3] is reported as 2 fold. Further, the “decrease … (caspase 3 activation)” value in test [1] is recorded as “little activity in intact cells”.

As for `O=C(c1ccc(SCc2ccccc2)cc1O)c1[nH]c(Cl)c(Cl)c1-n1c(C(=O)c2ccc(SCc3ccccc3)cc2O)cc(Cl)c1Cl` [compound 32], the “decrease … (caspase 3 activation)” value in test [1] is on record as “little activity in intact cells”.

In the case of `O=C(O)Cn1cc(-c2ccc(C(=O)c3[nH]c(Cl)c(Cl)c3-n3c(C(=O)c4ccc(-c5cn(CC(=O)O)nn5)cc4O)cc(Cl)c3Cl)c(O)c2)nn1` [compound 45, 2,2′-(4,4′-((4,4′,5,5′-Tetrachloro-1′H-1,3′-bipyrrole-2,2′-dicarbonyl)bis(3-hydroxy-4,1-phenylene))bis(1H-1,2,3-triazole-4,1-diyl))diacetic acid], the IC50 in test [2] amounted to 16.5 ± 1.9 µM.

Take `CC(C)(C)OC(=O)Cn1cc(-c2cc(O)c(C(=O)c3[nH]c(Cl)c(Cl)c3-n3c(C(=O)c4cc(Cl)c(-c5cn(CC(=O)OC(C)(C)C)nn5)cc4O)cc(Cl)c3Cl)cc2Cl)nn1` [compound 37, Di-tert-butyl 2,2′-(4,4′-((4,4′,5,5′-tetrachloro-1′H-1,3′-bipyrrole-2,2′-dicarbonyl)bis(2-chloro-5-hydroxy-4,1-phenylene))bis(1H-1,2,3-triazole-4,1-diyl))diacetate]: the “decrease … (caspase 3 activation)” value in test [1] is reported as “little activity in intact cells”.
